These results are taken from PubChem BioAssay (NCI).

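Assay format: 96-well plates, 48-hour exposure. GI50 = concentration required for 50% inhibition of growth. TGI marks complete inhibition of growth.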

Test systems include TK-10 renal; RPMI-8226 leukemia; NCI-H522 lung; MALME-3M melanoma; HCT-116 colon; NCI-H23 lung; SF-539 CNS; UO-31 renal; NCI-H226 lung; 786-0 renal.
Holding throughout (assay): NCI anticancer screen, dose series, 48 h

Take `N=c1ccn2c(n1)OC1C(OP(=O)(O)O)C(CO)OC12` (stereo unspecified): the TGI with TK-10 renal, with RPMI-8226 leukemia, in the assay with NCI-H522 lung, in the assay with MALME-3M melanoma, in the assay on HCT-116 colon and in the assay on NCI-H23 lung was more than 100 µM each time. For the same molecule, the TGI in the assay on SF-539 CNS, in the assay with UO-31 renal, with NCI-H226 lung and with 786-0 renal was more than 100 µM in each case.
`CCCC(OCC)(OCC)OCC`: the TGI with TK-10 renal, with RPMI-8226 leukemia, in the assay with NCI-H522 lung, with MALME-3M melanoma, in the assay on HCT-116 colon and in the assay on NCI-H23 lung was more than 100 µM in each case. For the same molecule, the TGI in the assay with SF-539 CNS, in the assay on UO-31 renal, in the assay on NCI-H226 lung and in the assay on 786-0 renal was more than 100 µM in each case.
Consider `c1cncc(C2c3[nH]c4ccccc4c3CCN2CCCN2CCCCC2)c1` (stereo unspecified), for which the TGI with TK-10 renal is more than 100 µM; in the assay with RPMI-8226 leukemia it was more than 100 µM; in the assay with NCI-H522 lung, more than 100 µM; in the assay on MALME-3M melanoma, 92.5 µM; with HCT-116 colon it was more than 100 µM; in the assay on NCI-H23 lung it was more than 100 µM. Further, the TGI in the assay on SF-539 CNS, with UO-31 renal, in the assay on NCI-H226 lung and with 786-0 renal was more than 100 µM throughout.
As for `CCOC(=O)C1Cc2c(ccc(OC)c2OC)C(=O)C1N` (stereo unspecified), the TGI in the assay with TK-10 renal, in the assay on RPMI-8226 leukemia, in the assay with NCI-H522 lung, in the assay on MALME-3M melanoma, in the assay on HCT-116 colon and with NCI-H23 lung was more than 100 µM each time. Further, the TGI in the assay with SF-539 CNS, in the assay on UO-31 renal, in the assay with NCI-H226 lung and in the assay on 786-0 renal was more than 100 µM throughout.
For `Nc1nc(N)c2nc(CNc3ccc(C(=O)CC(CCC(=O)O)C(=O)O)cc3)cnc2n1` (stereo unspecified), the GI50 in the assay on TK-10 renal is 0.385 µM; in the assay on NCI-H522 lung, 0.47 µM; in the assay on MALME-3M melanoma, 1.43 µM; in the assay on HCT-116 colon, less than 0.0185 µM; with NCI-H23 lung it was 0.441 µM; in the assay on SF-539 CNS, 0.176 µM. In addition, the values for the GI50 in the assay on UO-31 renal, with NCI-H226 lung and in the assay on 786-0 renal were 0.168 µM, 1.07 µM and 0.0566 µM, respectively. The TGI with TK-10 renal, with RPMI-8226 leukemia, with NCI-H522 lung, with MALME-3M melanoma, in the assay on HCT-116 colon and in the assay with NCI-H23 lung was more than 100 µM in each case. Also, the TGI in the assay on SF-539 CNS, in the assay on UO-31 renal, in the assay on NCI-H226 lung and with 786-0 renal was more than 100 µM each time.
`Cc1cc(N(CCOS(C)(=O)=O)CCOS(C)(=O)=O)ccc1C=Nc1ccc(-c2csc(-c3ccccc3)n2)c(Cl)c1`: the TGI was 46.1 µM with TK-10 renal; more than 71 µM with RPMI-8226 leukemia; 3.02 µM with NCI-H522 lung; 25 µM in the assay with MALME-3M melanoma; 40.5 µM in the assay with HCT-116 colon; 29 µM in the assay with NCI-H23 lung. Further, the TGI with SF-539 CNS came to 16.8 µM; with UO-31 renal, 29.7 µM; in the assay with NCI-H226 lung, 45.2 µM; with 786-0 renal, 17.7 µM.
`CC(=O)[O-].CC(=O)[O-].[Mn+2].c1ccc(/C(=N\Nc2ccccn2)c2ccccn2)cc1`: the TGI with TK-10 renal came to 54.6 µM; in the assay with RPMI-8226 leukemia, 7.04 µM; in the assay on NCI-H522 lung, 0.277 µM; with MALME-3M melanoma, 16.8 µM; with HCT-116 colon, 0.739 µM; in the assay on NCI-H23 lung it was 16.7 µM. For the same molecule, the TGI with SF-539 CNS came out at 0.665 µM; in the assay on UO-31 renal it was 3.88 µM; with NCI-H226 lung it was 3 µM; in the assay on 786-0 renal it was 13.8 µM. Moreover, the GI50 was 0.0289 µM in the assay on NCI-H522 lung, 0.0362 µM in the assay with MALME-3M melanoma, 0.00784 µM in the assay on NCI-H23 lung and 0.097 µM in the assay on 786-0 renal.
Consider `COc1cccc(/C=C(/C(=O)O)c2cc(OC)c(OC)c(OC)c2)c1`, for which the TGI with TK-10 renal, in the assay with RPMI-8226 leukemia, in the assay with NCI-H522 lung, in the assay with MALME-3M melanoma, in the assay on HCT-116 colon and in the assay with SF-539 CNS was more than 100 µM throughout. Further, the TGI with UO-31 renal, in the assay on NCI-H226 lung and in the assay with 786-0 renal was more than 100 µM each time.
As for `CN1CCC23c4c5ccc(O)c4OC2C(=NN=C2CCC4(O)C6Cc7ccc(O)c8c7C4(CCN6C)C2O8)CCC3(O)C1C5` (stereo unspecified), the TGI with TK-10 renal, with RPMI-8226 leukemia, in the assay with NCI-H522 lung, in the assay with MALME-3M melanoma, in the assay with NCI-H23 lung and in the assay with SF-539 CNS was more than 100 µM each time. The TGI in the assay on UO-31 renal, in the assay on NCI-H226 lung and in the assay with 786-0 renal was more than 100 µM in each case.
